According to ChEMBL document CHEMBL1201862, “PubChem BioAssay data set” (2004):
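Assay format: 96-well plates, 48-hour exposure. Abbreviation: GI50, concentration required for 50% inhibition of growth.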 Calls of active or inactive are those of the source. No stated cut-off is given here; in the data, active = GI50 up to about 1.1 µM and inactive = higher.

Columns and labels:
Assay in all cases: NCI tumour cell line growth inhibition, 48 h
[1] = tested on: DMS-114
[2] = tested on: CAKI-1
[3] = tested on: RPMI-8226
[4] = tested on: A549
[5] = tested on: SNB-75
[6] = tested on: HCT-15
[7] = tested on: LXFL 529
[8] = tested on: NCI-H522
[9] = tested on: SF-268
[10] = tested on: MCF7
[11] = tested on: SK-MEL-28
[12] = tested on: A498
[13] = tested on: U-251
[14] = tested on: OVCAR-8
[15] = tested on: K562
[16] = tested on: LOX IMVI
[17] = tested on: RXF 393
[18] = tested on: SF-295
[19] = tested on: KM12
[20] = tested on: HOP-92
[21] = tested on: DMS-273
[22] = tested on: DLD-1
[23] = tested on: 786-0
[24] = tested on: UACC-62
[25] = tested on: MDA-MB-435
[26] = tested on: SK-OV-3
[27] = tested on: M19-MEL
[28] = tested on: HCT-116
[29] = tested on: HOP-62
[30] = tested on: DU-145
[31] = tested on: SN12C
[32] = tested on: XF498
[33] = tested on: COLO 205
[34] = tested on: SNB-19
[35] = tested on: TK-10
[36] = tested on: ACHN
[37] = tested on: SF-539
[38] = tested on: M14
[39] = tested on: T47D
[40] = tested on: NCI-H226
[41] = tested on: HL-60
[42] = tested on: CCRF-CEM
[43] = tested on: OVCAR-5
[44] = tested on: MDA-MB-231
[45] = tested on: HT-29
[46] = tested on: SK-MEL-2
[47] = tested on: SR
[48] = tested on: BT-549
[49] = tested on: KM-20L2
[50] = tested on: IGROV-1
[51] = tested on: OVCAR-4
[52] = tested on: HOP-18
[53] = tested on: EKVX
[54] = tested on: NCI-H460
[55] = tested on: SNB-78
[56] = tested on: HCC 2998
[57] = tested on: NCI/ADR-RES
[58] = tested on: RXF 631
[59] = tested on: UO-31
[60] = tested on: PC-3
[61] = tested on: Malme-3M
[62] = tested on: NCI-H23
[63] = tested on: SW-620
[64] = tested on: Hs-578T
[65] = tested on: SK-MEL-5
[66] = tested on: OVCAR-3
[67] = tested on: UACC-257
[68] = tested on: MDA-N
[69] = tested on: MOLT-4

In the case of `N#CC(C(=O)/C(=N/Nc1nc(S)nn1N)C(C#N)c1ccccc1)c1ccccc1` (configuration not stated), the GI50 [1] is reported as > 100 µM (inactive), the GI50 [2] is reported as > 100 µM (inactive) and the GI50 [3] is reported as > 100 µM (inactive). For the same compound, the GI50 [4] was > 100 µM (inactive), the GI50 [5] was > 100 µM (inactive) and the GI50 [6] was over 100 µM. The GI50 [7] was > 100 µM (inactive), the GI50 [8] was > 100 µM (inactive) and the GI50 [9] was > 100 µM (inactive). The GI50 [10] was > 100 µM (inactive), the GI50 [11] was > 100 µM (inactive) and the GI50 [12] was > 100 µM (inactive). For the same compound, the GI50 [13] was > 100 µM (inactive), the GI50 [14] was > 100 µM (inactive) and the GI50 [15] was > 100 µM (inactive). The GI50 [16] was > 100 µM (inactive), the GI50 [17] was > 100 µM (inactive) and the GI50 [18] was > 100 µM (inactive). For the same compound, the GI50 [19] was > 100 µM (inactive), the GI50 [20] was > 100 µM (inactive) and the GI50 [21] was > 100 µM (inactive). For the same compound, the GI50 [22] was > 100 µM (inactive), the GI50 [23] was > 100 µM (inactive) and the GI50 [24] was > 100 µM (inactive). The GI50 [25] was > 100 µM (inactive), the GI50 [26] was > 100 µM (inactive) and the GI50 [27] was > 100 µM (inactive). The GI50 [28] was > 100 µM (inactive), the GI50 [29] was > 100 µM (inactive) and the GI50 [30] was > 100 µM (inactive). The GI50 [31] was > 100 µM (inactive), the GI50 [32] was > 100 µM (inactive) and the GI50 [33] was > 100 µM (inactive). The GI50 [34] was > 100 µM (inactive), the GI50 [35] was > 100 µM (inactive) and the GI50 [36] was > 100 µM (inactive). For the same compound, the GI50 [37] was > 100 µM (inactive), the GI50 [38] was > 100 µM (inactive) and the GI50 [39] was > 100 µM (inactive). For the same compound, the GI50 [40] was > 100 µM (inactive), the GI50 [41] was > 100 µM (inactive) and the GI50 [42] was > 100 µM (inactive). The GI50 [43] was > 100 µM (inactive), the GI50 [44] was > 100 µM (inactive) and the GI50 [45] was > 100 µM (inactive). The GI50 [46] was > 100 µM (inactive), the GI50 [47] was > 100 µM (inactive) and the GI50 [48] was > 100 µM (inactive). The GI50 [49] was > 100 µM (inactive), the GI50 [50] was > 100 µM (inactive) and the GI50 [51] was > 100 µM (inactive). For the same compound, the GI50 [52] was 0.403 µM (active), the GI50 [53] was > 100 µM (inactive) and the GI50 [54] was > 100 µM (inactive). The GI50 [55] was > 100 µM (inactive), the GI50 [56] was > 100 µM (inactive) and the GI50 [57] was > 100 µM (inactive). The GI50 [58] was > 100 µM (inactive), the GI50 [59] was > 100 µM (inactive) and the GI50 [60] was > 100 µM (inactive). For the same compound, the GI50 [61] was > 100 µM (inactive), the GI50 [62] was > 100 µM (inactive) and the GI50 [63] was > 100 µM (inactive). The GI50 [64] was > 100 µM (inactive), the GI50 [65] was > 100 µM (inactive) and the GI50 [66] was > 100 µM (inactive). The GI50 [67] was > 100 µM (inactive).
For `CNC(=O)OC1/C(C)=C\C(C)C(O)C(OC)CC(C)CC2=C(OC)C(=O)C=C(C2=O)N(C)C(=O)/C(C)=C/C=C\C1OC` (configuration not stated), the GI50 [68] was 1.33 µM (inactive), the GI50 [1] was 4.99 µM (inactive) and the GI50 [2] was 7.4 µM (inactive). For the same compound, the GI50 [3] was 1.67 µM (inactive), the GI50 [4] was 14.3 µM (inactive) and the GI50 [5] was 14.2 µM (inactive). For the same compound, the GI50 [6] was 6.76 µM, the GI50 [69] was 0.891 µM (active) and the GI50 [7] was 4.86 µM (inactive). For the same compound, the GI50 [8] was 0.879 µM (active), the GI50 [9] was 9.73 µM (inactive) and the GI50 [11] was 2.88 µM (inactive). For the same compound, the GI50 [12] was 18.5 µM (inactive), the GI50 [13] was 15.2 µM (inactive) and the GI50 [14] was 7.38 µM (inactive). The GI50 [15] was 0.578 µM (active), the GI50 [16] was 4.68 µM (inactive) and the GI50 [17] was 2.25 µM (inactive). For the same compound, the GI50 [18] was 24.4 µM (inactive), the GI50 [19] was 10.4 µM (inactive) and the GI50 [20] was 2.8 µM (inactive). The GI50 [21] was 3.31 µM (inactive), the GI50 [22] was 1.96 µM (inactive) and the GI50 [23] was 4.31 µM (inactive). For the same compound, the GI50 [24] was 3.84 µM (inactive), the GI50 [26] was 10.2 µM (inactive) and the GI50 [27] was 5 µM (inactive). For the same compound, the GI50 [28] was 8.05 µM (inactive), the GI50 [29] was 14.4 µM (inactive) and the GI50 [30] was 9.64 µM (inactive). The GI50 [31] was 3.62 µM (inactive), the GI50 [32] was 3.72 µM (inactive) and the GI50 [33] was 0.424 µM (active). For the same compound, the GI50 [34] was 36.2 µM (inactive), the GI50 [35] was 7.64 µM (inactive) and the GI50 [36] was 8.24 µM (inactive). The GI50 [37] was 8.32 µM (inactive), the GI50 [38] was 3.08 µM (inactive) and the GI50 [39] was 1.57 µM (inactive). The GI50 [40] was 19.5 µM (inactive), the GI50 [42] was 0.938 µM (active) and the GI50 [43] was 13.1 µM (inactive). For the same compound, the GI50 [44] was 2.05 µM (inactive), the GI50 [45] was 1.19 µM (inactive) and the GI50 [46] was 8.85 µM (inactive). For the same compound, the GI50 [48] was 5 µM (inactive), the GI50 [49] was 2.53 µM (inactive) and the GI50 [50] was 10.8 µM (inactive). For the same compound, the GI50 [51] was 9.23 µM (inactive), the GI50 [52] was 9.27 µM (inactive) and the GI50 [53] was 11.9 µM (inactive). The GI50 [54] was 11.1 µM (inactive), the GI50 [55] was 7.21 µM (inactive) and the GI50 [56] was 4.39 µM (inactive). The GI50 [57] was 20 µM (inactive), the GI50 [58] was 15.1 µM (inactive) and the GI50 [59] was 7.69 µM (inactive). The GI50 [60] was 11.5 µM (inactive), the GI50 [61] was 5.69 µM (inactive) and the GI50 [62] was 4.86 µM (inactive). For the same compound, the GI50 [63] was 0.35 µM (active), the GI50 [64] was 4.03 µM (inactive) and the GI50 [65] was 7.64 µM (inactive). For the same compound, the GI50 [66] was 3.8 µM (inactive) and the GI50 [67] was 5.02 µM (inactive).
